From patent US20040072746A1, “Inhibitors of monocarboxylate transport” (priority 2001, published 2004)

Key:
human MCT2 = target: T1, human MCT2 (Homo sapiens, UniProt O60669); assay: MCT filter binding assay, yeast membranes, radioligand specific binding; conditions: ~2.5 nM radioligand
T1 construct: The full length open reading frame for human MCT2 was then subcloned into the S. cerevisiae expression plasmid, pACES14; made in house; host or cells: Saccharomyces cerevisiae BY4742 (jen1 deletion), membrane preparation; plasmid pACES14-hMCT2
T1 sequence (O60669 1-478): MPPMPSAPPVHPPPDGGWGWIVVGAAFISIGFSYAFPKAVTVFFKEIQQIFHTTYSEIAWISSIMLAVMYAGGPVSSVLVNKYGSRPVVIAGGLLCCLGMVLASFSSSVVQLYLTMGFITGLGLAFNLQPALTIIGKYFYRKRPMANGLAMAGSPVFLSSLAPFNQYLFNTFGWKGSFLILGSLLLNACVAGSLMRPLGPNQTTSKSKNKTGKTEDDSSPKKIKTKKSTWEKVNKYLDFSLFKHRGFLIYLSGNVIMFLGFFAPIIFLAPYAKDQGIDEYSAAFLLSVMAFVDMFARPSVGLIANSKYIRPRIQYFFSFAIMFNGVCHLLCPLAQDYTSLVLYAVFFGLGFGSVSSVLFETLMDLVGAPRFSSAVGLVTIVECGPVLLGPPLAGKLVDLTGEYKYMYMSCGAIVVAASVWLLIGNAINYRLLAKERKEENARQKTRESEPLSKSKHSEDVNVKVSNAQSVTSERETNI
Method: (§1) For yeast cells transformed with expression plasmids containing the human MCT 1-4 ORFs the ability of membrane preparations to bind radioligand was determined using a single ligand concentration/multi protein concentration binding assay. This generated an estimate of the amount of active binding protein present in each membrane preparation. The ligand concentration used will give an estimate of Bmax that is approximately 90% of the true value. 10 μl of ligand A, B or C that had been diluted 50 fold with assay buffer (50 mM HEPES, 0.1 mM EDTA, 0.15 M NaCl, pH 7.5, 0.5% BSA) was dispensed into wells of a polypropylene microtitre plate. This gives a final radiolabelled ligand concentration of ˜2.5 nM. […] The membranes were diluted to give a known amount/180 μl assay buffer. This is typically in the […] range. For the membranes with high binding site number a more dilute membrane preparation should be added. 180 μl of each membrane solution was then added to each well and incubated at 2 hours at room temperature with shaking. The membranes were harvested onto GF-B filter plates and washed with assay buffer without BSA, dried, scintillant added and counts detected using the relevant program for each ligand on a Packard Top Count plate reader.

human MCT4 = target: T2, human MCT4 (Homo sapiens, UniProt O15427); assay: as above; conditions: ~2.5 nM radioligand
T2 construct: from the full length copy and subcloned into the S. cerevisiae expression plasmid pACES14; made in house; host or cells: Saccharomyces cerevisiae BY4742 (jen1 deletion), membrane preparation; plasmid pACES14-hMCT4
T2 sequence (O15427 1-465): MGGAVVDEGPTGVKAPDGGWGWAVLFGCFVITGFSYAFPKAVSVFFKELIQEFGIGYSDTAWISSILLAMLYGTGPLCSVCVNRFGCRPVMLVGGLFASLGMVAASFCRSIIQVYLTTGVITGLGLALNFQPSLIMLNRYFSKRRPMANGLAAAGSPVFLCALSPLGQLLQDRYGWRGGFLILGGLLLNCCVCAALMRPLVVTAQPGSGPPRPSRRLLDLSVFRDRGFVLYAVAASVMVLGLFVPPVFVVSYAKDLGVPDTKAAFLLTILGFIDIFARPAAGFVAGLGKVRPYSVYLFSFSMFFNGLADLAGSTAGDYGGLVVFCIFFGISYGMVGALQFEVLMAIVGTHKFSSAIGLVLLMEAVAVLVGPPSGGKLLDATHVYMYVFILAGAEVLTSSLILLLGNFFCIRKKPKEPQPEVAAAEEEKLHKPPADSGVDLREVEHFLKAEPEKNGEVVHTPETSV
Method: as §1

Structure (SMILES): CC(C)Cc1nn(C)c(=O)c2c(SCCCO)n(Cc3ccccc3[125I])cc12 [Ligand A, 2,6-Dihydro-7-[(3-hydroxypropyl)thio]-6-[(2-[^125I]iodophenyl)methyl]-2-methyl-4-(2-methylpropyl)-1H-pyrrolo[3,4-d]pyridazin-1-one]
- Specific binding (cpm) Average (human MCT2; MCT2 (2 ug)): 7286 cpm
- Specific binding (cpm) Average (human MCT2; MCT2 (20 ug)): 14769 cpm
- Specific binding (cpm) Average (human MCT4; MCT4 (2 ug)): 405 cpm
- Specific binding (cpm) Average (human MCT4; MCT4 (20 ug)): 872 cpm
